In the assay the target is T1, atypical protein kinase C (aPKC) (Drosophila melanogaster, UniProt A1Z9X0).
T1 sequence (A1Z9X0 1-606): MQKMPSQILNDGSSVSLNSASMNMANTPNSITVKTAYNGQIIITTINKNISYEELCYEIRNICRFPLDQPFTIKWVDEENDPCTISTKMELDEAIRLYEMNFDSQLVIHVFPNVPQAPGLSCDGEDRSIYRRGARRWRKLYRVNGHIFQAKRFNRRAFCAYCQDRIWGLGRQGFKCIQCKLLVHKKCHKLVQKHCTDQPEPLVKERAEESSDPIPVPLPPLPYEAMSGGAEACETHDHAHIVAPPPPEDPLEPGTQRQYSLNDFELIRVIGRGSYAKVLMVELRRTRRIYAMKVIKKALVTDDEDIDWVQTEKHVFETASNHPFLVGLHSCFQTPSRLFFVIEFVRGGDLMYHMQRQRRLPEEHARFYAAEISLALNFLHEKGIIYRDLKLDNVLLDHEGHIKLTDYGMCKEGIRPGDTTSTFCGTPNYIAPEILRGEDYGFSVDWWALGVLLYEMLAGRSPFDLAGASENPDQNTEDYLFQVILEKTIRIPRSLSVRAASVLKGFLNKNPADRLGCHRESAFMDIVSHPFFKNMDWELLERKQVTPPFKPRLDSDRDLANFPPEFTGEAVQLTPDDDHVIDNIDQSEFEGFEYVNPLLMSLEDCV
Kind of assay: in vitro […] kinase assay with purified recombinant aPKC. In kind it is biochemical.

Bounds are passed on as bounds.

One may read the IC50 as the point on the concentration scale where inhibition reaches its midpoint. For `C[C@@H](N)[C@H]1CC[C@H](C(=O)Nc2ccncc2)CC1` [Y-27632], the IC50 was under 10 µM.

These data come from paper PMC2689075 (Current biology : CB, 2009).
